Laboratory results published in patent publication US20170037118A1, “Methods for treating and/or limiting development of diabetes” (Biocrine AB, priority 2013, published 2017).

System: 12-weeks-old ob/ob islets
Test: Caspase 3/7 activity assay (apoptosis)
Format: cell-based, mouse
Conditions: β-cells from 12-weeks old ob/ob mice incubated overnight with the Ca2+-channel blocker
Method: ApoCIII expression was measured by real-time qPCR to determine the efficacy of apoCIII knockdown in cultured islets (n=4). […] (c) 25 mM KCl was used to induce depolarization and subsequent Ca^2+ influx (n=9-10). (d) Caspase 3/7 activity in ob/ob islets isolated from animals at 4-, 8- and 12-weeks of age (n=4). (e) Decrease in caspase activity in β-cells from 12-weeks old ob/ob mice either incubated overnight with the Ca^2+-channel blocker verapamil (left column) or exposed to apoCIII antisense (right column) (n=4). Data presented as mean±SEM. *P<0.05, ** P<0.01 by student's t-test or ANOVA (Tukey's post-hoc).
Caspase assay. Activity of capase 3/7 was determined using SensoLyte™ Homogeneous Rh110 Caspase 3/7 assay kit according to manufacturer's instructions, with modifications (AnaChem, USA). Briefly, islets or cells were harvested, lysed using lysis buffer (AnaChem, USA) and the protein quantified using BCA method. 10 μg of protein was loaded in a black 384-well plate and topped up with the appropriate amount of assay buffer (AnaChem, USA) containing Rh110 Caspase 3/7 Substrate. Plate was incubated in the dark for 1 hour at 24° C. Fluorescence intensity at Ex/Em=490/520nm was measured to determine the relative caspase activity.
It was determined if reducing endogenous apoCIII affects apoptosis in ob/ob islets. […]

## COc1ccc(CCN(C)CCCC(C#N)(c2ccc(OC)c(OC)c2)C(C)C)cc1OC (stereo not shown) [verapamil]
  reduction of caspase activity: 15%
